Measurements taken from patent publication US20200095241A1, “SUBSTITUTED 1,2,4-THIADIAZOLYLPYRROLONES AND 1,2,4-THIADIAZOLYLHYDANTOINS AND SALTS THEREOF AND USE THEREOF AS HERBICIDES” (Bayer CropScience Aktiengesellschaft, priority 2016, published 2020).

Key:
[1] = system: Abutilon theophrasti; test: Post-emergence herbicidal action; assay type: in vivo; conditions: Abutilon theophrasti, 504 h, about 3 weeks after treatment, read-out: Abutilon theophrasti, herbicidal activity rated visually
Procedure: (§1) Seeds of monocotyledonous and dicotyledonous weeds and crop plants were placed in sandy loam in plastic or wood-fiber pots, covered with soil and cultivated in a greenhouse under controlled growth conditions. 2 to 3 weeks after sowing, the test plants were treated at the one-leaf stage. The compounds of the invention, formulated in the form of wettable powders (WP) or as emulsion concentrates (EC), were then sprayed onto the green parts of the plants as aqueous suspension or emulsion with addition of 0.5% additive at a water application rate of 600 l/ha (converted). After the test plants had been kept in the greenhouse under optimum growth conditions for about 3 weeks, the activity of the preparations was rated visually in comparison to untreated controls. For example, 100% activity=the plants have died, 0% activity=like control plants. Tables A1 to A12 below show the effects of selected compounds of the general formula (I) according to Tables I.1 to I.44 on various harmful plants and an application rate corresponding to 1280 g/ha or 320 g/ha, which were obtained by the experimental procedure mentioned above.

[2] = system: Amaranthus retroflexus; test: Post-emergence herbicidal action; assay type: in vivo; conditions: about 3 weeks after treatment
Procedure: as §1

[3] = system: Matricaria inodora; test: Post-emergence herbicidal action; assay type: in vivo; conditions: about 3 weeks after treatment
Procedure: as §1

[4] = system: Pharbitis purpurea; test: Post-emergence herbicidal action; assay type: in vivo; conditions: about 3 weeks after treatment
Procedure: as §1

[5] = system: Setaria viridis; test: Post-emergence herbicidal action; assay type: in vivo; conditions: Setaria viridis, 504 h, about 3 weeks after treatment, read-out: Setaria viridis, herbicidal activity rated visually
Procedure: as §1

[6] = system: Stellaria media; test: Post-emergence herbicidal action; assay type: in vivo; conditions: Stellaria media, 504 h, about 3 weeks after treatment, read-out: Stellaria media, herbicidal activity rated visually
Procedure: as §1

[7] = system: Viola tricolor; test: Post-emergence herbicidal action; assay type: in vivo; conditions: 504 h, about 3 weeks after treatment, read-out: Viola tricolor, herbicidal activity rated visually
Procedure: as §1

[8] = system: Alopecurus myosuroides; test: Pre-emergence herbicidal action; assay type: in vivo; conditions: after about 3 weeks
Text: (§2) Seeds of monocotyledonous and dicotyledonous weed plants and crop plants were placed in plastic or organic planting pots and covered with soil. The compounds of the invention, formulated in the form of wettable powders (WP) or as emulsion concentrates (EC), were then applied onto the surface of the covering soil as aqueous suspension or emulsion with addition of 0.5% additive at a water application rate of 600 l/ha (converted). After the treatment, the pots were placed in a greenhouse and kept under good growth conditions for the test plants. After about 3 weeks, the effect of the preparations was scored visually in comparison with untreated controls as percentages. For example, 100% activity=the plants have died, 0% activity=like control plants. Tables B1 to B15 below show the effects of selected compounds of the general formula (I) according to Tables I.1 to I.44 on various harmful plants and an application rate corresponding to 1280 g/ha or 320 g/ha, which were obtained by the experimental procedure mentioned above.

[9] = system: Hordeum murinum; test: Pre-emergence herbicidal action; assay type: in vivo; conditions: 320 g/ha, after about 3 weeks
Text: as §2

[10] = system: Matricaria inodora; test: Pre-emergence herbicidal action; assay type: in vivo; conditions: Tripleurospermum inodorum, 504 h, after about 3 weeks, read-out: Matricaria inodora, herbicidal effect scored visually
Text: as §2

[11] = system: Polygonum convolvulus; test: Pre-emergence herbicidal action; assay type: in vivo; conditions: after about 3 weeks
Text: as §2

[12] = system: Setaria viridis; test: Pre-emergence herbicidal action; assay type: in vivo; conditions: Setaria viridis, 504 h, after about 3 weeks, read-out: Setaria viridis, herbicidal effect scored visually
Text: as §2

[13] = system: Stellaria media; test: Pre-emergence herbicidal action; assay type: in vivo; conditions: Stellaria media, 504 h, after about 3 weeks, read-out: Stellaria media, herbicidal effect scored visually
Text: as §2

[14] = system: Viola tricolor; test: Pre-emergence herbicidal action; assay type: in vivo; conditions: Viola tricolor, 504 h, after about 3 weeks, read-out: Viola tricolor, herbicidal effect scored visually
Text: as §2

[15] = molecular target: T1, photosystem II (PS II) (Spinacia oleracea, UniProt P69560); test: Measurement of the PS II activity in thylakoid membranes (DCPIP reduction); assay type: biochemical; conditions: 100 μM test compound, spinach thylakoid membranes, DCPIP 120 μM, 10 min at 22° C. with exposure to light; read-out: Effect (inhibition of PS II activity)
T1 construct: the chloroplasts were osmotically ruptured and the thylakoid membranes were then obtained by centrifugation; from tissue; host or cells: fresh spinach leaves; thylakoid membranes isolated from chloroplasts
How it was run: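 Thylakoid membranes from spinach leaves in 50 mM phosphate buffer pH 6.8, 10 mM KCl; light-driven reduction of 120 μM DCPIP followed at 595 nm for 10 min at 22 °C. Compounds tested at 100 μM stock in DMSO (2.5% final DMSO), with activity binned by % inhibition classes.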

[16] = system: Alopecurus myosuroides; test: Post-emergence herbicidal action; assay type: in vivo; conditions: 1280 g/ha, about 3 weeks after treatment
Procedure: as §1

[17] = system: Echinochloa crus-galli; test: Post-emergence herbicidal action; assay type: in vivo; conditions: 1280 g/ha, about 3 weeks after treatment
Procedure: as §1

[18] = system: Hordeum murinum; test: Post-emergence herbicidal action; assay type: in vivo; conditions: 1280 g/ha, about 3 weeks after treatment
Procedure: as §1

[19] = system: Polygonum convolvulus; test: Post-emergence herbicidal action; assay type: in vivo; conditions: 1280 g/ha, about 3 weeks after treatment
Procedure: as §1

[20] = system: Veronica persica; test: Post-emergence herbicidal action; assay type: in vivo; conditions: 1280 g/ha, about 3 weeks after treatment
Procedure: as §1

[21] = system: Cyperus esculentus; test: Pre-emergence herbicidal action; assay type: in vivo; conditions: 1280 g/ha, after about 3 weeks
Text: as §2

[22] = system: Echinochloa crus-galli; test: Pre-emergence herbicidal action; assay type: in vivo; conditions: 1280 g/ha, after about 3 weeks
Text: as §2

Question: Which pest or weed control at 320 g/ha ([1]; 320 g/ha) does the source give for `CC1=C(C)C(O)N(c2nc(C3CC3)ns2)C1=O` (stereo not drawn) [I.2-11, 3,4-Dimethyl-5-hydroxy-1-(3-cyclopropyl-1,2,4-thiadiazol-5-yl)-1,5-dihydro-2H-pyrrol-2-one] here?
Answer: 100%

Question: What about the “Amaranthus retroflexus, herbicidal activity rated visually” value ([2]; 320 g/ha) of the same compound?
Answer: 100%

Question: And the “Matricaria inodora, herbicidal activity rated visually” value ([3]; 320 g/ha)?
Answer: 100%

Question: What about the “Pharbitis purpurea, herbicidal activity rated visually” value ([4]; 320 g/ha) of the same compound?
Answer: 100%

Question: What about the pest or weed control at 320 g/ha ([5]; 320 g/ha) of the same compound?
Answer: 100%

Question: What about the pest or weed control at 320 g/ha ([6]; 320 g/ha) of the same compound?
Answer: 100%

Question: And the pest or weed control at 320 g/ha ([7]; 320 g/ha)?
Answer: 100%

Question: What about the “Alopecurus myosuroides, herbicidal effect scored visually” value ([8]; 320 g/ha) of the same compound?
Answer: 90%

Question: What about the “Hordeum murinum, herbicidal effect scored visually” value [9] of the same compound?
Answer: 100%

Question: What about the pest or weed control at 320 g/ha ([10]; 320 g/ha) of the same compound?
Answer: 100%

Question: And the “Polygonum convolvulus, herbicidal effect scored visually” value ([11]; 320 g/ha)?
Answer: 100%

Question: And the pest or weed control at 320 g/ha ([12]; 320 g/ha)?
Answer: 100%

Question: And the pest or weed control at 320 g/ha ([13]; 320 g/ha)?
Answer: 100%

Question: And the pest or weed control at 320 g/ha ([14]; 320 g/ha)?
Answer: 100%

Question: And the inhibition at 100 µM (stock) [15]?
Answer: > 90%

Question: `CC1=C(C)C(O)N(c2nc(C(C)C)ns2)C1=O` (stereo not drawn) [I.2-5, 3,4-Dimethyl-5-hydroxy-1-(3-(isopropyl)-1,2,4-thiadiazol-5-yl)-1,5-dihydro-2H-pyrrol-2-one] was tested. Which pest or weed control at 1280 g/ha ([1]; 1280 g/ha) did it give?
Answer: 100%

Question: What about the “Alopecurus myosuroides, herbicidal activity rated visually” value [16] of the same compound?
Answer: 80%

Question: And the “Amaranthus retroflexus, herbicidal activity rated visually” value ([2]; 1280 g/ha)?
Answer: 100%

Question: And the “Echinochloa crus-galli, herbicidal activity rated visually” value [17]?
Answer: 90%

Question: And the “Hordeum murinum, herbicidal activity rated visually” value [18]?
Answer: 100%

Question: And the “Matricaria inodora, herbicidal activity rated visually” value ([3]; 1280 g/ha)?
Answer: 100%

Question: What about the “Pharbitis purpurea, herbicidal activity rated visually” value ([4]; 1280 g/ha) of the same compound?
Answer: 100%

Question: And the “Polygonum convolvulus, herbicidal activity rated visually” value [19]?
Answer: 80%

Question: And the pest or weed control at 1280 g/ha ([5]; 1280 g/ha)?
Answer: 100%

Question: And the pest or weed control at 1280 g/ha ([6]; 1280 g/ha)?
Answer: 100%

Question: And the “Veronica persica, herbicidal activity rated visually” value [20]?
Answer: 90%

Question: What about the pest or weed control at 1280 g/ha ([7]; 1280 g/ha) of the same compound?
Answer: 100%

Question: What about the “Alopecurus myosuroides, herbicidal effect scored visually” value ([8]; 1280 g/ha) of the same compound?
Answer: 80%

Question: What about the “Cyperus esculentus, herbicidal effect scored visually” value [21] of the same compound?
Answer: 90%

Question: What about the “Echinochloa crus-galli, herbicidal effect scored visually” value [22] of the same compound?
Answer: 80%

Question: And the pest or weed control at 1280 g/ha ([10]; 1280 g/ha)?
Answer: 100%

Question: And the “Polygonum convolvulus, herbicidal effect scored visually” value ([11]; 1280 g/ha)?
Answer: 100%

Question: What about the pest or weed control at 1280 g/ha ([12]; 1280 g/ha) of the same compound?
Answer: 100%

Question: And the pest or weed control at 1280 g/ha ([13]; 1280 g/ha)?
Answer: 100%

Question: And the pest or weed control at 1280 g/ha ([14]; 1280 g/ha)?
Answer: 100%

Question: And the inhibition at 100 µM (stock) [15]?
Answer: > 90%
